“And” between values parts separate entries of the source, which are not always exact repeats. Identical values can stand only once.
Legend:
Type in all cases: cell-based
Jurkat = assay: calcium mobilization (FLIPR, Fluo-3) in Jurkat
Description: (§1) The above panel of 10 cell lines was plated in 96-well black, clear-bottomed tissue culture-treated plates (Molecular Devices, Sunnyvale, Calif. with the number of cells per well indicated in Table 1. Cells were maintained overnight at 37° C., 5%CO2 in a humidified incubator. Media was removed and the cells were then incubated in Hanks balanced salt solution (Invitrogen, Carlsbad Calif.)/10 mM HEPES pH 7.4 containing 0.04% Pluronic Acid (Molecular Probes, Eugene Oreg.) and 4 uM Fluor-3AM (Molecular Probes, Eugene Oreg.) for one hour at 37° C.
(§2) Antagonists were added to the indicated concentration and the cells incubated at room temperature for 20 minutes. After 10 seconds of baseline read collection, agonists were added on a FLIPR instrument (Molecular Devices, Sunnyvale, Calif.) and data were collected for a total of 3.5 minutes. The fluorescence emission was normalized to initial intensity and the sum of the signal over the entire time period was exported and used for determining percent of control responses using the following formula: Percent of Control=(Sample-unstimulated cells)/(ionomycin treated cells-unstimulated cells). […] Calcium mobilization was measured as described above. […]

HBL-100 = assay: calcium mobilization (FLIPR, Fluo-3) in HBL-100; settings: for calcium mobilization, Percent of Control: HBL-100; for effect on responses to bradykinin in HBL-100 cells: antagonist at 10 uM
Description: as §1, §2

PC-3 = assay: calcium mobilization (FLIPR, Fluo-3) in PC-3
Description: as §1, §2

SaOS-2 = assay: calcium mobilization (FLIPR, Fluo-3) in SaOS-2; settings: for calcium mobilization, Percent of Control: SaOS-2; for effect on responses to bradykinin in SaOS-2 cells: antagonist at 10 uM
Description: as §1, §2

PANC-1 = assay: calcium mobilization (FLIPR, Fluo-3) in PANC-1
Description: as §1, §2

COLO320 = assay: calcium mobilization (FLIPR, Fluo-3) in COLO320
Description: as §1
(§3) Antagonists were added to the indicated concentration and the cells incubated at room temperature for 20 minutes. After 10 seconds of baseline read collection, agonists were added on a FLIPR instrument (Molecular Devices, Sunnyvale, Calif.) and data were collected for a total of 3.5 minutes. The fluorescence emission was normalized to initial intensity and the sum of the signal over the entire time period was exported and used for determining percent of control responses using the following formula: Percent of Control=(Sample-unstimulated cells)/(ionomycin treated cells-unstimulated cells). […] Calcium mobilization was measured as described above.
(§4) Expression of the target H1 receptor was measured by RT-PCR of mRNA samples from each cell line, as follows.

NTera-2 = assay: calcium mobilization (FLIPR, Fluo-3) in NTera-2; settings: for calcium mobilization, Percent of Control: NTera-2; for effect on the response to ionomycin in NTera-2 cells: antagonist at 10 uM, cells do not express the H1 receptor
Description: as §1, §2

NCI-H460 = assay: calcium mobilization (FLIPR, Fluo-3) in NCI-H460
Description: as §1, §2

T-47D = assay: calcium mobilization (FLIPR, Fluo-3) in T-47D; settings: for calcium mobilization, Percent of Control: T-47D; for effect on the response to ionomycin in T-47D cells: antagonist at 10 uM, cells do not express the H1 receptor
Description: as §1, §3, §4

panel of 10 cell lines = assay: calcium mobilization profile across the panel of 10 cell lines; settings: for effect on calcium responses to histamine: histamine-induced calcium mobilization, panel of 10 cell lines, antagonist 1 or 10 uM
Description: as §1, §3, §4

SK-Hep-1 = assay: calcium mobilization (FLIPR, Fluo-3) in SK-Hep-1; settings: agonist alone (buffer), 10 uM, 100 = 10 uM ionomycin
Description: as §1, §3

[1] = agonist alone (buffer), 10 uM, 100 = 10 uM ionomycin
[2] = response to 1 uM bradykinin after antagonist 10 uM
[3] = response to 10 uM histamine after antagonist 10 uM, 20 min
[4] = response to 10 uM ionomycin after antagonist 10 uM

Structure (SMILES)	calcium mobilization, Percent of Control (Jurkat; [1])	calcium mobilization, Percent of Control (HBL-100; [1])	calcium mobilization, Percent of Control (PC-3; [1])	calcium mobilization, Percent of Control (SaOS-2; [1])	calcium mobilization, Percent of Control (PANC-1; [1])	calcium mobilization, Percent of Control (COLO320; [1])	calcium mobilization, Percent of Control (NTera-2; [1])	calcium mobilization, Percent of Control (NCI-H460; [1])	calcium mobilization, Percent of Control (T-47D; [1])	calcium mobilization, Percent of Control (SK-Hep-1)	calcium mobilization, Percent of Control (Jurkat; [2])	calcium mobilization, Percent of Control (Jurkat; [3])	calcium mobilization, Percent of Control (Jurkat; [4])	effect on responses to bradykinin in HBL-100 cells (HBL-100)	calcium mobilization, Percent of Control (PC-3; [2])	calcium mobilization, Percent of Control (PC-3; [3])	calcium mobilization, Percent of Control (PC-3; [4])	calcium mobilization, Percent of Control (SaOS-2; [2])	calcium mobilization, Percent of Control (SaOS-2; [4])	effect on responses to bradykinin in SaOS-2 cells (SaOS-2)	further results
C[C@@H](N)Cc1c[nH]cn1 [R-a-his, R-alphamethyl histamine]	2% of Control	−1% of Control	0% of Control	0% of Control	0% of Control	1% of Control	2% of Control	0% of Control	0% of Control	−1% of Control	–	–	–	–	–	–	–	–	–	–	pattern of calcium responses compared with histamine and bradykinin (panel of 10 cell lines; agonist example, 10 uM, 10 cell lines): resembles neither bradykinin nor histamine
COc1ccc2c(c1)CC[C@@H]1[C@@H]2CC[C@]2(C)[C@@H](NCCCCCCN3C(=O)C=CC3=O)CC[C@@H]12 [Compound U73122, U73122]	–	–	–	–	–	–	–	–	–	–	52% of Control	2% of Control	52% of Control	inhibits the responses	0% of Control	0% of Control	100% of Control	2% of Control	71% of Control	inhibits the responses	calcium mobilization, Percent of Control (SaOS-2; [3]): 0% of Control; calcium mobilization, Percent of Control (PANC-1; [2]): 0% of Control; calcium mobilization, Percent of Control (PANC-1; [3]): 2% of Control; calcium mobilization, Percent of Control (PANC-1; [4]): 89% of Control; calcium mobilization, Percent of Control (COLO320; [2]): 5% of Control; calcium mobilization, Percent of Control (COLO320; [3]): 2% of Control; calcium mobilization, Percent of Control (COLO320; [4]): 73% of Control; calcium mobilization, Percent of Control (NTera-2; [2]): 1% of Control; calcium mobilization, Percent of Control (NTera-2; [3]): 2% of Control; calcium mobilization, Percent of Control (NTera-2; [4]): 72% of Control; effect on the response to ionomycin in NTera-2 cells (NTera-2): partially inhibit the response to ionomycin; calcium mobilization, Percent of Control (NCI-H460; [2]): 1% of Control; calcium mobilization, Percent of Control (NCI-H460; [3]): 2% of Control; calcium mobilization, Percent of Control (NCI-H460; [4]): 102% of Control; calcium mobilization, Percent of Control (T-47D; [2]): 1% of Control; calcium mobilization, Percent of Control (T-47D; [3]): 1% of Control; calcium mobilization, Percent of Control (T-47D; [4]): 88% of Control; effect on the response to ionomycin in T-47D cells (T-47D): partially inhibit the response to ionomycin; specificity as inhibitor of histamine signaling through the H1 receptor (panel of 10 cell lines; compared with chlorpheniramine): less specific than chlorpheniramine; effect on calcium responses to histamine (panel of 10 cell lines): inhibit responses to histamine
NCCc1c[nH]cn1 [histamine]	–	18% of Control and 27% of Control	1% of Control	13% of Control and 18% of Control	26% of Control and 30% of Control	–	0% of Control	32% of Control and 24% of Control	–	19% of Control	–	–	–	–	–	–	–	–	–	–	activity in cells that do not express the H1 receptor target (panel of 10 cell lines; agonist example, 10 uM): Neither Compound 1 nor histamine were active
C[C@H](CCC(=O)O)C[C@H](C)C[C@H](C)C(=O)/C=C(\O)[C@H](C)C[C@H](C)C/C=C/[C@@H](C)[C@@H](O)[C@@H](C)[C@@H](O)C[C@@H]1CC[C@@](C)([C@H]2CC[C@@](C)([C@@H](C)O)O2)O1 [ionomycin]	100% of Control	100% of Control	100% of Control	100% of Control	100% of Control	100% of Control	100% of Control	100% of Control	100% of Control	100% of Control	–	–	–	–	–	–	–	–	–	–	–
CNCCc1cnc[nH]1 [N-a-his, N-alphamethyl histamine]	2% of Control	16% of Control	1% of Control	11% of Control	22% of Control	1% of Control	2% of Control	30% of Control	0% of Control	12% of Control	–	–	–	–	–	–	–	–	–	–	activity in cells that do not express the H1 receptor target (panel of 10 cell lines; agonist example, 10 uM): Neither Compound 1 nor histamine were active
CN(C)CCC(c1ccc(Cl)cc1)c1ccccn1 (stereo not shown) [Compound C1PhAm, chlorpheniramine]	–	–	–	–	–	–	–	–	–	–	12% of Control and 10% of Control	8% of Control and 5% of Control	70% of Control and 123% of Control	does not	0% of Control	0% of Control	104% of Control	29% of Control and 23% of Control	96% of Control and 112% of Control	does not	calcium mobilization, Percent of Control (HBL-100; [2]): 11% of Control; calcium mobilization, Percent of Control (HBL-100; [3]): 0% of Control; calcium mobilization, Percent of Control (HBL-100; [4]): 87% of Control; calcium mobilization, Percent of Control (PANC-1; [4]): 101% of Control and 104% of Control; calcium mobilization, Percent of Control (COLO320; [2]): 0% of Control; calcium mobilization, Percent of Control (COLO320; [4]): 98% of Control and 95% of Control; calcium mobilization, Percent of Control (NTera-2; [3]): 0% of Control; calcium mobilization, Percent of Control (NTera-2; [4]): 99% of Control and 119% of Control; effect on the response to ionomycin in NTera-2 cells (NTera-2): does not affect the ionomycin response; calcium mobilization, Percent of Control (NCI-H460; [4]): 73% of Control and 96% of Control; calcium mobilization, Percent of Control (T-47D; [4]): 102% of Control; effect on the response to ionomycin in T-47D cells (T-47D): does not affect the ionomycin response; effect on calcium responses to bradykinin (panel of 10 cell lines; bradykinin-induced, antagonist at 10 uM): did not inhibit bradykinin responses; effect on calcium responses to histamine (panel of 10 cell lines): had similar effects to Compound 1

— patent US20030100997A1, “Matrix assays in genomically indexed cells” (priority 2001, published 2003)
